Test [1] has as its system PMN-MDSC from 3-week LL2 mice. Briefly: Transwell assay of migration of PMN-MDSC. Particulars: different concentrations of ADP. The class given is cell-based, mouse. From the text: (§1) FIG. 7A-FIG. 7H. PM-LC spontaneous migration is dependent upon pannexin-1 hemichannels, extracellular ATP, and P2X and P2Y receptors. (FIG. 7A) Transwell assays evaluating the ability of PM-LC from one-week LL2 mice (left) (n=3) and RET mice (right) (n=5) to spontaneously migrate upon pannexin-1 hemichannel inhibition (panx). (FIG. 7B) Transwell assays evaluating the ability of neutrophils from control mice (n=8) and PM-LC from one-week LL2 mice (n=10) to spontaneously migrate upon apyrase treatment. […] In addition, the ability of PM-LC from RET melanoma mice (n=3) to spontaneously migrate was also evaluated in the presence of P2Y inhibitors MRS2179 and AR-C118925XX. […] P values are calculated in two-sided Student's t-test. *−p<0.05; **−p<0.01; ***−p<0.001 (FIG. 7H) pMLC2 in BM neutrophils isolated from naive mice and one-week LL2 TB mice. […]
(§2) Unstimulated migration and chemotaxis was measured using a 3 μm pore transwell system (Neuro Probe Inc. or Sigma-Aldrich). […] 10 μl media was taken from the bottom wells and counted by hemocytometer. The quantification of migrated neutrophils was done using the formula N=n×10^4×0.029 reflecting 29 µl media in the bottom well.

Test [2] deals with BM neutrophils from control mice. Briefly: Transwell assay of spontaneous migration of control neutrophils. The class given is cell-based, mouse.
Source text: as §1, §2

A further test concerns pMLC2. Briefly: pMLC2 Western blot in PM-LC. To be noted: PM-LC from one-week LL2 TB mice; treated 1 hour before Western blot. In kind it is cell-based, mouse. The method, then: FIG. 15A-FIG. 15E. Expression of F-actin and genes associated with the glycolytic pathway. (FIG. 15A) Expression of indicated genes in neutrophils from control and RET melanoma mice measured in real-time quantitative PCR (n=3). Individual results for each mouse, mean and SD are shown. (FIG. 15B) F-actin was measured using flow cytometry before and after stimulation with CXCL1 or fMLP in BM neutrophils from indicated tumor models. Typical example of 4 experiments is shown. (FIG. 15C) F-actin in unstimulated cells evaluated by flow cytometry. Individual results for each mouse, mean and SD are shown. (FIG. 15D) F-actin in neutrophils and PMN-MDSC measured by flow cytometry (n=4). Individual results for each mouse, mean and SD are shown. Significant p values in two-sided Student's t-test are shown. (FIG. 15E) pMLC2 in neutrophils from control tumor-free and one-week LLC TB mice. Neutrophils were treated with vehicle alone or with P2Y2 inhibitor (ARC) for 1 hour before Western blot analysis. Two experiments with similar results were performed.

For another test, the system named is PM-LC. Briefly: Transwell assay of spontaneous migration of PM-LC. The class given is cell-based, mouse. Particulars: for spontaneous migration of PM-LC: PM-LC from one-week LL2 TB mice, agent 10 min prior to plating, 1 hour. The source says:
FIG. 7A-FIG. 7H. PM-LC spontaneous migration is dependent upon pannexin-1 hemichannels, extracellular ATP, and P2X and P2Y receptors. (FIG. 7A) Transwell assays evaluating the ability of PM-LC from one-week LL2 mice (left) (n=3) and RET mice (right) (n=5) to spontaneously migrate upon pannexin-1 hemichannel inhibition (panx). (FIG. 7B) Transwell assays evaluating the ability of neutrophils from control mice (n=8) and PM-LC from one-week LL2 mice (n=10) to spontaneously migrate upon apyrase treatment. (FIG. 7C-FIG. 7F) Transwell assays evaluating the ability of neutrophils from control mice (n=6) and PM-LC from one-week LL2 mice (n=7) to spontaneously migrate upon pan P2R inhibitor, P2XR, P2X1, P2Y, and A3R inhibition with suramin, NF449, MRS2179, AR-C118925XX, and MRS 1191, respectively. In addition, the ability of PM-LC from RET melanoma mice (n=3) to spontaneously migrate was also evaluated in the presence of P2Y inhibitors MRS2179 and AR-C118925XX. Individual values and mean and SD are shown. (FIG. 7G) Migration of BM neutrophils from control mice (n=3) and PMN-MDSC from 3-week LL2 mice (n=3) in response to stimulation with different concentrations of ADP. Mean and SD are shown. P values are calculated in two-sided Student's t-test. *−p<0.05; **−p<0.01; ***−p<0.001 (FIG. 7H) pMLC2 in BM neutrophils isolated from naive mice and one-week LL2 TB mice. Experiments were performed three times with similar results.
Unstimulated migration and chemotaxis was measured using a 3 μm pore transwell system (Neuro Probe Inc. or Sigma-Aldrich). Advanced RPMI with CXCL1 (BioLegend) or fMLP (Sigma-Aldrich) was placed in the bottom of the transwell, as indicated. 0.1×10^6 or 0.5×10^6 cells were incubated with pannexin inhibitor (^10Panx; Tocris), scrambled ^10Panx (Tocris), pan-P2XR inhibitor suramin (R&D Systems), P2X1 inhibitor NF 449 (Tocris), A3R inhibitor MRS 1191 (Santa Cruz), or apyrase (New England Biolabs) in Advanced RPMI for 10 min prior to being plated on top of the Neuro Probe system or Sigma-Aldrich system filter, respectively, and placed at 37° C., 5% CO2 for 1 hour. 10 μl media was taken from the bottom wells and counted by hemocytometer. The quantification of migrated neutrophils was done using the formula N=n×10^4×0.029 reflecting 29 µl media in the bottom well.

For a further test, the target named is P2Y1 receptor (Homo sapiens, UniProt P47900). Particulars: in vitro; cited from earlier work.
P2Y1 receptor, sequence (P47900 whole entry): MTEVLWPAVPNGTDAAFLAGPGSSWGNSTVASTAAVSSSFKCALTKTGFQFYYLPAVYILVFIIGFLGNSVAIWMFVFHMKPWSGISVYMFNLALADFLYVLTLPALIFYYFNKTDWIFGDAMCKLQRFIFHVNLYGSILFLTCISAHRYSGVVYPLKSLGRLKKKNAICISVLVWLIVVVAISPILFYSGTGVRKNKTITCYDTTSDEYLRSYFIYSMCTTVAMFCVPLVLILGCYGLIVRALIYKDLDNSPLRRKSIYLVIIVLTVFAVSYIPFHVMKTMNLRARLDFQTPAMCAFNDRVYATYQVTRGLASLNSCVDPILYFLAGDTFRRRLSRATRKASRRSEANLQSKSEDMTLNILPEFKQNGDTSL
The conditions of test [3]: rats, compared to controls; cited from earlier work.
The conditions of test [4]: mice, compared to controls; cited from earlier work.
Test [5] relates to P2 receptors such as P2X3, P2Y1, and P2Y2, P2X1. To be noted: cited from earlier work.

Read-outs that look alike come from different tables or passages of the source.

Turning to `Nc1ncnc2c1ncn2[C@@H]1O[C@H](COP(=O)(O)OP(=O)(O)O)[C@@H](O)[C@H]1O` [ADP], the “migration of PMN-MDSC on stimulation” value in test [1] is listed as “significantly increased migration”. The “migration of control neutrophils on stimulation” value in test [2] (BM neutrophils from control mice, different concentrations of ADP) is reported as “significantly increased migration”.

Regarding `Cc1ccc2c(c1)C=Cc1cc(C)ccc1C2c1cn(Cc2ccc(C(=O)Nc3nn[nH]n3)o2)c(=O)[nH]c1=S` [AR-C118925XX, 5-[[5-(2,8-Dimethyl-5H-dibenzo[a,d]cyclohepten-5-yl)-3,4-dihydro-2-oxo-4-thioxo-1(2H)-pyrimidinyl]methyl]-N-2H-tetrazol-5-yl-2-furancarboxamide], the “up-regulation of pMLC2 in PM-LC” value in the test on pMLC2 was “abrogated”. Also, the “spontaneous migration of PM-LC” value in the test on PM-LC is “completely abrogated the increased spontaneous migration”.

On to `CNc1ncnc2c1ncn2[C@H]1C[C@H](OP(=O)(O)O)[C@@H](COP(=O)(O)O)O1.N` [MRS2179, 3′-adenylic acid, 2′-deoxy-N-methyl-5′-(dihydrogen phosphate), ammonium salt], for which the “pA2, inhibition of ADP-induced platelet shape change and aggregation” value on P2Y1 receptor is recorded as 6.55. Further, the bleeding time entry in test [3] and in test [4] was “prolongs bleeding time” in each case. Also, in the test with PM-LC, the “spontaneous migration of PM-LC” value is given as “completely abrogated the increased spontaneous migration”.

Take `CCOC(=O)C1=C(C)NC(c2ccccc2)=C(C(=O)OCc2ccccc2)C1C#Cc1ccccc1` (centres unmarked) [MRS 1191]: the “spontaneous migration of PM-LC” value in the test with PM-LC is “did not affect”.

Regarding `O=C(Nc1cc(C(=O)Nc2ccc(S(=O)(=O)[O-])cc2S(=O)(=O)[O-])cc(C(=O)Nc2ccc(S(=O)(=O)[O-])cc2S(=O)(=O)[O-])c1)Nc1cc(C(=O)Nc2ccc(S(=O)(=O)[O-])cc2S(=O)(=O)[O-])cc(C(=O)Nc2ccc(S(=O)(=O)[O-])cc2S(=O)(=O)[O-])c1.[Na+].[Na+].[Na+].[Na+].[Na+].[Na+].[Na+].[Na+]` [NF449, 4,4′,4″,4″′-[Carbonylbis(imino-5,1,3-benzenetriyl-bis(carbonylimino))]tetrakis-1,3-benzen edisulfonic acid octasodium salt], in the test with PM-LC (PM-LC from one-week LL2 mice), the “inhibition of the ability of PM-LCs to spontaneously migrate” value is 50%. Further, the “selectivity among P2 receptors” value in test [5] was “highest selectivity towards P2X1”.

As to `Cc1ccc(C(=O)Nc2ccc(S(=O)(=O)O)c3cc(S(=O)(=O)O)cc(S(=O)(=O)O)c23)cc1NC(=O)c1cccc(NC(=O)Nc2cccc(C(=O)Nc3cc(C(=O)Nc4ccc(S(=O)(=O)O)c5cc(S(=O)(=O)O)cc(S(=O)(=O)O)c45)ccc3C)c2)c1` [suramin], the “spontaneous migration of PM-LC” value in the test with PM-LC was “completely abrogated”.

In the case of apyrase, the “spontaneous migration of control neutrophils” value in test [2] (neutrophils from control mice, Transwell) is “completely abrogated”. In the test with PM-LC, the “spontaneous migration of PM-LC” value is “completely abrogated”.
